The values that follow come from patent US9090605B2, “Substituted 5-,6- and 7-membered heterocycles, medicaments containing such compounds, and their use” (Vitae Pharmaceuticals, Inc., priority 2010, dated 2015).

By IC50 is commonly meant the concentration needed to halve the response being measured.

Chain of 11β-HSD1 (P28845 whole entry): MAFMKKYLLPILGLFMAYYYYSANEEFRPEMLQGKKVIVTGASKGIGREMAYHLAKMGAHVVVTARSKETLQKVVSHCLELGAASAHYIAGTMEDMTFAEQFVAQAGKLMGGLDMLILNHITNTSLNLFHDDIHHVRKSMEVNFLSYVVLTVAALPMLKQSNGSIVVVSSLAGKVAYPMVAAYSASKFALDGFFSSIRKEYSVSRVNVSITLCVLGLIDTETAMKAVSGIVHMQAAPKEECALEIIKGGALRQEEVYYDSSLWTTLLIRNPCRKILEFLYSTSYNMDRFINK

This assay addresses 11β-HSD1 (Homo sapiens, UniProt P28845). Description: In vitro inhibition of 11β-HSD1, HTRF detection of cortisol generated by human liver microsomes (biological test example 1). It is filed as biochemical. Also noted: detecting cortisol generated from cortisterone by human liver microsomes; from tissue; host or cells: human liver microsomes. The note with it: 1 hour at 37° C., cortisone 80 nM, NADPH 200 μM, read-out: IC50, inhibitory activity on 11β-HSD 1. The method, then: Briefly, compounds were incubated for 1 hour at 37° C. in Tris buffer (20 mM tris, 5 mM EDTA, pH 6.0) containing NADPH (200 μM) and cortisone (80 nM). Cortisol generated in the reaction was then detected with a competitive immunoassay, involving two HTRF conjugates: cortisol linked to XL665 and anti-cortisol antibody labeled with Europium cryptate. The incubation period for detection reaction was typically 2 hours. The amount of cortisol was determined by reading the time-resolved fluorescence of the wells (Ex 320/75 nm; Em 615/8.5 nm and 665/7.5 nm). The ratio of the two emission signals was then calculated (Em665*10000/Em615). […] Each assay also contained a calibration curve with cortisol to transform the fluorescent data into cortisol concentrations. Percent inhibition (% CTL) of each compound was determined relative to the carbenoxolone signal and IC50 curves were generated.
A general note: In TR-FRET formats the signal depends on donor and acceptor labels being close together.
Regarding `C[C@@H](c1ccc(-c2ccc(N3CCC[C@@H]3C(N)=O)nc2)cc1)N1CC[C@](CC(C)(C)O)(c2ccccc2)OC1=O` [Example 53, (R)-1-[5-(4-{(S)-1-[(S)-6-(2-Hydroxy-2-methyl-propyl)-2-oxo-6-phenyl-[1,3]oxazinan-3-yl]-ethyl}-phenyl)-pyridin-2-yl]-pyrrolidine-2-carboxylic acid amide], the IC50 was determined as 43 nM.

For the compound `C[C@@H](c1ccc(-c2cccc(C3(C(=O)N(C)C)CC3)n2)cc1)N1CC[C@](CC(C)(C)O)(c2ccccc2)OC1=O` [Example 24, 1-[6-(4-{(S)-1-[(S)-6-(2-Hydroxy-2-methyl-propyl)-2-oxo-6-phenyl-[1,3]oxazinan-3-yl]-ethyl}-phenyl)-pyridin-2-yl]-cyclopropanecarboxylic acid dimethylamide], the IC50 stood at 53 nM.

For `C[C@@H](c1ccc(-c2ccc(N3CCC[C@H]3C(N)=O)nc2)cc1)N1CC[C@](CC(C)(C)O)(c2ccccc2)OC1=O` [Example 54, (S)-1-[5-(4-{(S)-1-[(S)-6-(2-Hydroxy-2-methyl-propyl)-2-oxo-6-phenyl-[1,3]oxazinan-3-yl]-ethyl}-phenyl)-pyridin-2-yl]-pyrrolidine-2-carboxylic acid amide], the IC50 came out at 30 nM.

Turning to `C[C@@H](c1ccc(-c2ccc(C3(C(N)=O)CC3)cn2)cc1)N1CC[C@](CC(C)(C)O)(c2ccccc2)OC1=O` [Example 19, 1-[6-(4-{(S)-1-[(S)-6-(2-Hydroxy-2-methyl-propyl)-2-oxo-6-phenyl-[1,3]oxazinan-3-yl]-ethyl}-phenyl)-pyridin-3-yl]-cyclopropanecarboxylic acid amide], the half-inhibitory concentration (IC50) was determined as 35 nM.

In the case of `CNC(=O)C1(c2cccc(-c3ccc([C@H](C)N4CC[C@](CC(C)(C)O)(c5ccccc5)OC4=O)cc3)n2)CC1` [Example 23, 1-[6-(4-{(S)-1-[(S)-6-(2-Hydroxy-2-methyl-propyl)-2-oxo-6-phenyl-[1,3]oxazinan-3-yl]-ethyl}-phenyl)-pyridin-2-yl]-cyclopropanecarboxylic acid methylamide], the IC50 is 115 nM.

Take `C[C@@H](c1ccc(-c2ccc(N3CCC[C@@H]3C(N)=O)nn2)cc1)N1CC[C@](CC(C)(C)O)(c2ccccc2)OC1=O` [Example 55, (R)-1-[6-(4-{(S)-1-[(S)-6-(2-Hydroxy-2-methyl-propyl)-2-oxo-6-phenyl-[1,3]oxazinan-3-yl]-ethyl}-phenyl)-pyridazin-3-yl]-pyrrolidine-2-carboxylic acid amide]: the IC50 came to 87 nM.

On to `C[C@@H](c1ccc(-c2ccnc(C3(C(=O)N(C)C)CC3)c2)cc1)N1CC[C@](CC(C)(C)O)(c2ccccc2)OC1=O` [Example 48, 1-[4-(4-{(S)-1-[(S)-6-(2-Hydroxy-2-methyl-propyl)-2-oxo-6-phenyl-[1,3]oxazinan-3-yl]-ethyl}-phenyl)-pyridin-2-yl]-cyclopropanecarboxylic acid dimethylamide], for which the IC50 came to 47 nM.

Turning to `C[C@@H](c1ccc(-c2ccc(C3(C(N)=O)CCCCC3)nc2)cc1)N1CC[C@](CC(C)(C)O)(c2ccccc2)OC1=O` [Example 43, 1-[5-(4-{(S)-1-[(S)-6-(2-Hydroxy-2-methyl-propyl)-2-oxo-6-phenyl-[1,3]oxazinan-3-yl]-ethyl}-phenyl)-pyridin-2-yl]-cyclohexanecarboxylic acid amide], the IC50 was found to be 67 nM.

Take `C[C@@H](c1ccc(-c2cnn([C@H]3CCOC3)c2)cc1)N1CC[C@](CC(C)(C)O)(c2ccccc2)OC1=O` [Example 16, (S)-6-(2-Hydroxy-2-methyl-propyl)-6-phenyl-3-((S)-1-{4-[1-((S)-tetrahydro-furan-3-yl)-1H-pyrazol-4-yl]-phenyl}-ethyl)-[1,3]oxazinan-2-one]: the concentration for half-maximal inhibition (IC50) worked out at 29 nM.

Take `CNC(=O)C1(c2ccc(-c3ccc([C@H](C)N4CC[C@](CC(C)(C)O)(c5ccccc5)OC4=O)cc3)cn2)CC1` [Example 5, 1-[5-(4-{(S)-1-[(S)-6-(2-Hydroxy-2-methyl-propyl)-2-oxo-6-phenyl-[1,3]oxazinan-3-yl]-ethyl}-phenyl)-pyridin-2-yl]-cyclopropanecarboxylic acid methylamide]: the half-maximal inhibitory concentration (IC50) is 31 nM.

`CNC(=O)C1(c2cc(-c3ccc([C@H](C)N4CC[C@](CC(C)(C)O)(c5ccccc5)OC4=O)cc3)ccn2)CC1` [Example 47, 1-[4-(4-{(S)-1-[(S)-6-(2-Hydroxy-2-methyl-propyl)-2-oxo-6-phenyl-[1,3]oxazinan-3-yl]-ethyl}-phenyl)-pyridin-2-yl]-cyclopropanecarboxylic acid methylamide]: the concentration for half-maximal inhibition (IC50) was found to be 65 nM.

As to `C[C@@H](c1ccc(-c2ccc(C3(S(C)(=O)=O)CC3)cn2)cc1)N1CC[C@](CC(C)(C)O)(c2ccccc2)OC1=O` [Example 25, (S)-6-(2-Hydroxy-2-methyl-propyl)-3-((S)-1-{4-[5-(1-methanesulfonyl-cyclopropyl)-pyridin-2-yl]-phenyl}-ethyl)-6-phenyl-[1,3]oxazinan-2-one], the IC50 is 84 nM.

Regarding `C[C@@H](c1ccc(-c2ccn([C@H]3CCOC3)c(=O)c2)cc1)N1CC[C@](CC(C)(C)O)(c2ccccc2)OC1=O` [Example 13, (S)-6-(2-Hydroxy-2-methyl-propyl)-3-((S)-1-{4-[2-oxo-1-((S)-tetrahydro-furan-3-yl)-1,2-dihydro-pyridin-4-yl]-phenyl}-ethyl)-6-phenyl-[1,3]oxazinan-2-one], the IC50 stood at 46 nM.

Regarding `CNC(=O)C1(c2ccc(-c3ccc([C@H](C)N4CC[C@](CC(C)(C)O)(c5ccccc5)OC4=O)cc3)nn2)CC1` [Example 10, 1-[6-(4-{(S)-1-[(S)-6-(2-Hydroxy-2-methyl-propyl)-2-oxo-6-phenyl-[1,3]oxazinan-3-yl]-ethyl}-phenyl)-pyridazin-3-yl]-cyclopropanecarboxylic acid methylamide], the half-maximal inhibitory concentration (IC50) is 61 nM.

As to `C[C@@H](c1ccc(-c2ccc(C3(C#N)CC3)cn2)cc1)N1CC[C@](CC(C)(C)O)(c2ccccc2)OC1=O` [Example 17, 1-[6-(4-{(S)-1-[(S)-6-(2-Hydroxy-2-methyl-propyl)-2-oxo-6-phenyl-[1,3]oxazinan-3-yl]-ethyl}-phenyl)-pyridin-3-yl]-cyclopropanecarbonitrile], the IC50 worked out at 81 nM.

In the case of `C[C@@H](c1ccc(-c2ccc(C3(C(=O)N(C)C)CC3)nc2)cc1)N1CC[C@](CC(C)(C)O)(c2ccccc2)OC1=O` [Example 6, 1-[5-(4-{(S)-1-[(S)-6-(2-Hydroxy-2-methyl-propyl)-2-oxo-6-phenyl-[1,3]oxazinan-3-yl]-ethyl}-phenyl)-pyridin-2-yl]-cyclopropanecarboxylic acid dimethylamide], the concentration for half-maximal inhibition (IC50) came to 21 nM.

As to `C[C@@H](c1ccc(-c2ccc(C3(C(=O)N(C)C)CC3)nn2)cc1)N1CC[C@](CC(C)(C)O)(c2ccccc2)OC1=O` [Example 11, 1-[6-(4-{(S)-1-[(S)-6-(2-Hydroxy-2-methyl-propyl)-2-oxo-6-phenyl-[1,3]oxazinan-3-yl]-ethyl}-phenyl)-pyridazin-3-yl]-cyclopropanecarboxylic acid dimethylamide], the IC50 was found to be 94 nM.

Take `C[C@@H](c1ccc(-c2cccc(C3(S(C)(=O)=O)CC3)n2)cc1)N1CC[C@](CC(C)(C)O)(c2ccccc2)OC1=O` [Example 20, (S)-6-(2-Hydroxy-2-methyl-propyl)-3-((S)-1-{4-[6-(1-methanesulfonyl-cyclopropyl)-pyridin-2-yl]-phenyl}-ethyl)-6-phenyl-[1,3]oxazinan-2-one]: the IC50 stood at 73 nM.

For the compound `C[C@@H](c1ccc(-c2ccc(C3(C(N)=O)CCCC3)nc2)cc1)N1CC[C@](CC(C)(C)O)(c2ccccc2)OC1=O` [Example 42, 1-[5-(4-{(S)-1-[(S)-6-(2-Hydroxy-2-methyl-propyl)-2-oxo-6-phenyl-[1,3]oxazinan-3-yl]-ethyl}-phenyl)-pyridin-2-yl]-cyclopentanecarboxylic acid amide], the half-inhibitory concentration (IC50) was 56 nM.

On to `C[C@@H](c1ccc(-c2ccc(C3(S(C)(=O)=O)CC3)nc2)cc1)N1CC[C@](CC(C)(C)O)(c2ccccc2)OC1=O` [Example 18, (S)-6-(2-Hydroxy-2-methyl-propyl)-3-((S)-1-{4-[6-(1-methanesulfonyl-cyclopropyl)-pyridin-3-yl]-phenyl}-ethyl)-6-phenyl-[1,3]oxazinan-2-one], for which the IC50 came to 64 nM.

On to `C[C@@H](c1ccc(-c2ccnc(C3(C(N)=O)CC3)c2)cc1)N1CC[C@](CC(C)(C)O)(c2ccccc2)OC1=O` [Example 46, 1-[4-(4-{(S)-1-[(S)-6-(2-Hydroxy-2-methyl-propyl)-2-oxo-6-phenyl-[1,3]oxazinan-3-yl]-ethyl}-phenyl)-pyridin-2-yl]-cyclopropanecarboxylic acid amide], for which the half-inhibitory concentration (IC50) is 56 nM.

As to `C[C@@H](c1ccc(-c2cnn(C3CCOCC3)c2)cc1)N1CC[C@](CC(C)(C)O)(c2ccccc2)OC1=O` [Example 14, (S)-6-(2-Hydroxy-2-methyl-propyl)-6-phenyl-3-((S)-1-{4-[1-(tetrahydro-pyran-4-yl)-1H-pyrazol-4-yl]-phenyl}-ethyl)-[1,3]oxazinan-2-one], the IC50 was 48 nM.
